From US20260224494A1, “MILVEXIAN PHARMACEUTICAL COMPOSITIONS” (BRISTOL-MYERS SQUIBB COMPANY, priority 2023, published 2026)
Where “and” joins values, the source holds several entries; their conditions need not be identical. Identical values can stand only once. Like-named read-outs stand apart in the source and are kept apart here.

What was measured:
Format in all cases: physicochemical
[1] = Solubility of milvexian forms in organic solvent systems; details: 20 °C, organic solvent or mixture, thermodynamic from solid, 20° C.; for solubility at 2 weeks: read-out: Solubility in mg/mL solution 2 weeks; for solubility at 24 hours: read-out: Solubility in mg/mL solution 24 hours
Experimental: While heating of the feed solution is a viable solution for production, it is a more complex set-up and with risk of crashing out dissolved solids in case of cold spots and plant safety. Various solvent systems (See Table 11 below) were investigated with primary focus on solvent systems containing DCM due to its low boiling point and excellent solubilization properties.
Based on the data it was determined that 70/30 w/w % DCM/MeOH and 80/20 w/w % were promising solvent mixtures and more accurate solubility determination was carried out for 80/20 w/w % DCM/MeOH for both FORM A and P1.Acetone solvate at 20° C. with the results shown in Table 12 below.
P1.Acetone was the preferred crystalline form of milvexian for physical stability and manufacturability reasons. Based on the above, 80/20 w/w % DCM/MeOH solvent system was selected for development due to highly increase solubility over the 90/10 w/w % Acetone/Water solvent system.

[2] = Solubility test of milvexian (P1.Acetone) in DCM/MeOH 70/30 w/w %, appearance over 20 hours; details: 3.75 g in 19.83 g DCM and 8.5 g MeOH (70/30 w/w %); approximately 20 hours stirring
Experimental: Due to the turbid appearance of the solution when dissolving the milvexian (P1.Acetone) in 70/30 w/w % DCM/MeOH, a solubility test was performed by adding 3.75 g of milvexian (P1.Acetone) to a mixture of 19.83 g DCM and 8.5 g MeOH (DCM/MeOH 70/30 w/w %) under stirring by a magnetic stirrer. The appearance of the solution was evaluated at different timepoints over 20 hours.

[3] = Solubility in different aqueous media at 37° C.; details: for solubility at 1 day / solubility at 3 days: 37 °C, thermodynamic from solid

C[C@@H]1CCC[C@H](n2cnc(-c3cc(Cl)ccc3-n3cc(Cl)nn3)cc2=O)c2cc(ccn2)-c2c(cnn2C(F)F)NC1=O [P1.Acetone solvate]
solubility at 2 weeks ([1]; 60/40 DCM/MeOH, 60/40 DCM/MeOH): 99 mg/mL
solubility at 24 hours ([1]; 60/40 DCM/MeOH, 60/40 DCM/MeOH): 102 mg/mL
solubility at 2 weeks ([1]; 70/30 DCM/MeOH, 70/30 DCM/MeOH): 160 mg/mL
solubility at 2 weeks ([1]; 80/20 DCM/MeOH, 80/20 DCM/MeOH): 227 mg/mL
solubility at 24 hours ([1]; 80/20 DCM/MeOH, 80/20 DCM/MeOH): 226 mg/mL
solubility at 2 weeks ([1]; 90/10 DCM/MeOH, 90/10 DCM/MeOH): 225 mg/mL
solubility at 24 hours ([1]; 90/10 DCM/MeOH, 90/10 DCM/MeOH): 222 mg/mL
solubility at 2 weeks ([1]; 95/5 DCM/MeOH, 95/5 DCM/MeOH): 162 mg/mL
solubility at 24 hours ([1]; 95/5 DCM/MeOH, 95/5 DCM/MeOH): 163 mg/mL
solubility at 2 weeks ([1]; 100% DCM, 100% DCM): 33 mg/mL
solubility at 24 hours ([1]; 100% DCM, 100% DCM): 33 mg/mL
solubility at 2 weeks ([1]; 100% MeOH, 100% MeOH): 4.8 mg/mL
solubility at 24 hours ([1]; 100% MeOH, 100% MeOH): 4.6 mg/mL
solubility test, appearance of the solution [2]: not fully dissolved
Solubility, μg dissolved per mL at 37° C., replicates ([3]; 0.05M sodium acetate buffer pH 4.5, 1 day, single replicates): 1.57 µg/mL
Solubility, μg dissolved per mL at 37° C., replicates ([3]; 0.05M sodium acetate buffer pH 4.5, 3 days, single replicates): 1.95 µg/mL
Solubility, μg dissolved per mL at 37° C., replicates ([3]; 0.05M sodium phosphate buffer pH 6.8, 1 day, single replicates): 1.29 µg/mL and 1.48 µg/mL
Solubility, μg dissolved per mL at 37° C., replicates ([3]; 0.05M sodium phosphate buffer pH 6.8, 3 days, single replicates): 1.62 µg/mL
solubility at 1 day ([3]; 0.1M HCl, pH 1, simulated gastric fluid, 0.1M HCl, 1 day, average of 3 replicates, read-out: Solubility, μg dissolved per mL at 37° C., Average): 3.43 µg/mL
solubility at 1 day ([3]; 0.1M HCl, pH 1, simulated gastric fluid, 0.1M HCl, 1 day, single replicates, read-out: Solubility, μg dissolved per mL at 37° C., replicates): 3.36 µg/mL
solubility at 3 days ([3]; 0.1M HCl, pH 1, simulated gastric fluid, 0.1M HCl, 3 days, average of 3 replicates, read-out: Solubility, μg dissolved per mL at 37° C., Average): 3.49 µg/mL
solubility at 3 days ([3]; 0.1M HCl, pH 1, simulated gastric fluid, 0.1M HCl, 3 days, single replicates, read-out: Solubility, μg dissolved per mL at 37° C., replicates): 3.59 µg/mL
Solubility, μg dissolved per mL at 37° C., replicates ([3]; 0.1M HCl, 1 day, single replicates): 3.47 µg/mL and 3.46 µg/mL
Solubility, μg dissolved per mL at 37° C., replicates ([3]; 0.1M HCl, 3 days, single replicates): 3.30 µg/mL and 3.58 µg/mL
solubility at 1 day ([3]; sodium acetate buffer, pH 4.5, aqueous buffer, 0.05M sodium acetate buffer pH 4.5, 1 day, average of 3 replicates, read-out: Solubility, μg dissolved per mL at 37° C., Average): 1.69 µg/mL
solubility at 1 day ([3]; sodium acetate buffer, pH 4.5, aqueous buffer, 0.05M sodium acetate buffer pH 4.5, 1 day, single replicates, read-out: Solubility, μg dissolved per mL at 37° C., replicates): 1.81 µg/mL
solubility at 3 days ([3]; sodium acetate buffer, pH 4.5, aqueous buffer, 0.05M sodium acetate buffer pH 4.5, 3 days, average of 3 replicates, read-out: Solubility, μg dissolved per mL at 37° C., Average): 1.88 µg/mL
solubility at 3 days ([3]; sodium acetate buffer, pH 4.5, aqueous buffer, 0.05M sodium acetate buffer pH 4.5, 3 days, single replicates, read-out: Solubility, μg dissolved per mL at 37° C., replicates): 1.85 µg/mL
solubility at 1 day ([3]; sodium phosphate buffer, pH 6.8, aqueous buffer, 0.05M sodium phosphate buffer pH 6.8, 1 day, average of 3 replicates, read-out: Solubility, μg dissolved per mL at 37° C., Average): 1.43 µg/mL
solubility at 1 day ([3]; sodium phosphate buffer, pH 6.8, aqueous buffer, 0.05M sodium phosphate buffer pH 6.8, 1 day, single replicates, read-out: Solubility, μg dissolved per mL at 37° C., replicates): 1.53 µg/mL
solubility at 3 days ([3]; sodium phosphate buffer, pH 6.8, aqueous buffer, 0.05M sodium phosphate buffer pH 6.8, 3 days, average of 3 replicates, read-out: Solubility, μg dissolved per mL at 37° C., Average): 1.6 µg/mL
solubility at 3 days ([3]; sodium phosphate buffer, pH 6.8, aqueous buffer, 0.05M sodium phosphate buffer pH 6.8, 3 days, single replicates, read-out: Solubility, μg dissolved per mL at 37° C., replicates): 1.56 µg/mL
